Columns and labels:
[1] = xn = mol fraction of the nth substance listed; conditions: 100 kPa, Liquid; for speed of sound: Frequency=3 MHz, Sing-around technique in a fixed-path interferometer; for mass density: Vibrating tube method
[2] = refractive index (Na D-line) (dimensionless); xn = mol fraction of the nth substance listed; conditions: 100 kPa, Liquid, Standard Abbe refractometry

CCCC(C)=O [pentan-2-one] + CN(C)C=O
Conditions	mass density, [1] [kg/m3]	refractive index, [2]	speed of sound, [1] [m/s]
293.15 K, x2 = 0	806.83	1.39026	1232.4
293.15 K, x2 = 0.056	–	1.39208	–
293.15 K, x2 = 0.1141	819.616	1.39408	1254.3
293.15 K, x2 = 0.1516	823.961	–	1261.7
293.15 K, x2 = 0.1531	–	1.39541	–
293.15 K, x2 = 0.2063	830.491	1.39735	1273
293.15 K, x2 = 0.2588	836.933	1.39918	1284
293.15 K, x2 = 0.3089	843.115	1.40106	1294.7
293.15 K, x2 = 0.3594	849.625	1.40295	1303.2
293.15 K, x2 = 0.4006	855.077	1.40453	1315.3
293.15 K, x2 = 0.4488	861.489	1.40643	1326.3
293.15 K, x2 = 0.4999	868.584	1.40845	1338.5
293.15 K, x2 = 0.5466	875.212	1.41036	1350
293.15 K, x2 = 0.5976	–	1.41245	–
293.15 K, x2 = 0.5987	882.775	–	1363.1
293.15 K, x2 = 0.6581	891.66	1.41495	1378.4
293.15 K, x2 = 0.6992	–	1.41668	–
293.15 K, x2 = 0.7528	906.494	1.41906	1404.2
293.15 K, x2 = 0.8029	914.576	1.42129	1418.1
293.15 K, x2 = 0.8461	921.84	1.42325	1430.7
293.15 K, x2 = 0.9017	931.277	1.42583	1446.8
293.15 K, x2 = 0.9496	939.704	1.42811	1460.9
298.15 K, x2 = 0	801.99	1.38793	1211.9
298.15 K, x2 = 0.0568	808.267	1.38979	1222.8
298.15 K, x2 = 0.1	813.221	1.39128	1231.3
298.15 K, x2 = 0.1526	819.25	1.3931	1241.7
298.15 K, x2 = 0.1895	823.621	1.39442	1249.2
298.15 K, x2 = 0.2545	831.549	1.3967	1262.9
298.15 K, x2 = 0.3298	841.051	1.39955	1279.3
298.15 K, x2 = 0.3502	843.666	1.40029	1283.9
298.15 K, x2 = 0.3956	849.557	1.40203	1294
298.15 K, x2 = 0.4567	857.796	1.40441	1308.5
298.15 K, x2 = 0.5084	865.012	1.4065	1320.8
298.15 K, x2 = 0.557	871.899	1.40855	1332.9
298.15 K, x2 = 0.6022	878.552	1.41039	1344.4
298.15 K, x2 = 0.6448	884.967	1.41217	1355.5
298.15 K, x2 = 0.7117	895.208	1.41498	1373.4
298.15 K, x2 = 0.7504	901.333	–	1384
298.15 K, x2 = 0.7511	–	1.41672	–
298.15 K, x2 = 0.8027	909.784	1.41905	1398.7
298.15 K, x2 = 0.849	917.57	1.42117	1412.1
298.15 K, x2 = 0.9019	926.592	1.42364	1427.6
298.15 K, x2 = 0.9429	933.872	1.42557	1440.1
303.15 K, x2 = 0	796.73	1.38523	1191.7
303.15 K, x2 = 0.0581	803.204	–	1203
303.15 K, x2 = 0.0681	–	1.38748	–
303.15 K, x2 = 0.1088	808.974	–	1212.9
303.15 K, x2 = 0.113	–	1.38906	–
303.15 K, x2 = 0.1576	–	1.39062	–
303.15 K, x2 = 0.16	815.007	–	1223.3
303.15 K, x2 = 0.1979	–	1.39212	–
303.15 K, x2 = 0.2044	820.314	–	1232.5
303.15 K, x2 = 0.2343	–	1.39347	–
303.15 K, x2 = 0.262	827.319	–	1244.6
303.15 K, x2 = 0.3046	832.689	–	1253.9
303.15 K, x2 = 0.3128	–	1.39635	–
303.15 K, x2 = 0.3506	838.634	–	1264.1
303.15 K, x2 = 0.3603	–	1.3982	–
303.15 K, x2 = 0.4014	845.319	–	1275.7
303.15 K, x2 = 0.4156	–	1.40034	–
303.15 K, x2 = 0.4485	–	1.40167	–
303.15 K, x2 = 0.482	856.31	–	1294.7
303.15 K, x2 = 0.4954	–	1.40355	–
303.15 K, x2 = 0.5006	858.884	–	1299.1
303.15 K, x2 = 0.5407	864.591	–	1309
303.15 K, x2 = 0.5505	–	1.4058	–
303.15 K, x2 = 0.5986	–	1.40783	–
303.15 K, x2 = 0.5989	873.078	–	1323.9
303.15 K, x2 = 0.6407	–	1.40954	–
303.15 K, x2 = 0.6467	880.175	–	1336.3
303.15 K, x2 = 0.6949	887.598	–	1349.2
303.15 K, x2 = 0.6952	–	1.41187	–
303.15 K, x2 = 0.7401	–	1.41378	–
303.15 K, x2 = 0.7518	896.616	–	1364.8
303.15 K, x2 = 0.7992	–	1.41643	–
303.15 K, x2 = 0.8007	904.558	–	1378.6
303.15 K, x2 = 0.8527	913.274	–	1393.6
303.15 K, x2 = 0.8559	–	1.41908	–
303.15 K, x2 = 0.8991	921.307	–	1407.5
303.15 K, x2 = 0.8994	–	1.42109	–
303.15 K, x2 = 0.9411	–	1.42312	–
303.15 K, x2 = 0.9485	929.946	–	1422.2
